Read-outs that look alike come from different tables or passages of the source.
Test: Particle size distribution study (Malvern particle size analyzer, laser diffraction)
Type: physicochemical
Experimental: The study was conducted using Malvern particle size analyzer. The map of scattering intensity versus angle is the primary source of information used to calculate the particle size. The scattering of particles is accurately predicted by the Mie scattering model allowing accurate sizing across the widest possible dynamic range. During the laser diffraction measurement, particles are passed through a focused laser beam. These particles scatter light at an angle that is inversely proportional to their size. The angular intensity of the scattered light is then measured by a series of photosensitive detectors. The advantage of this study is that there is no sample preparation involved.
This is a clear indication that the process of nanoemulsification followed has effectively transformed the large sized particles to nanosized coated curcuminoid particles. Additional peaks can be observed which is contributed by the high molecular weight excipients used to prepare the formulation.

COc1cc(/C=C/C(=O)CC(=O)/C=C/c2ccc(O)c(OC)c2)ccc1O [unformulated curcumin 98%, curcumin]
particle size: 373 nm | particle size (listed as unformulated curcumin): 374 nm
